According to PMC6508677, “Identification of druggable small molecule antagonists of the Plasmodium falciparum hexose transporter PfHT and assessment of ligand access to the glucose permeation pathway via FLAG-mediated protein engineering” (PLoS ONE, 2019):
Where “and” joins values, the source holds several entries; their conditions need not be identical. Equal values may be shown once. Read-outs that look alike come from different tables or passages of the source.

Columns and labels:
blood stage parasites = system: blood stage parasites; parameters: method as in PMID 26248369; conditions: read-out: IC50 against blood stage parasites; cited from earlier work
FTPfHT [1] = biological target: T1, FTPfHT (Plasmodium falciparum, UniProt Q7KWJ5); assay: 2-DG uptake by HEK293 cells overexpressing FLAG-tagged PfHT (FTPfHT); assay type: cell-based; parameters: the 38–40 kDa band represents full length PfHT; expressed in transfected cells; host or cells: HEK293-FLIP (HEK293); key to 2-DG Uptake AVE: % uptake relative to vehicle-treated cells
T1 sequence (Q7KWJ5 1-504): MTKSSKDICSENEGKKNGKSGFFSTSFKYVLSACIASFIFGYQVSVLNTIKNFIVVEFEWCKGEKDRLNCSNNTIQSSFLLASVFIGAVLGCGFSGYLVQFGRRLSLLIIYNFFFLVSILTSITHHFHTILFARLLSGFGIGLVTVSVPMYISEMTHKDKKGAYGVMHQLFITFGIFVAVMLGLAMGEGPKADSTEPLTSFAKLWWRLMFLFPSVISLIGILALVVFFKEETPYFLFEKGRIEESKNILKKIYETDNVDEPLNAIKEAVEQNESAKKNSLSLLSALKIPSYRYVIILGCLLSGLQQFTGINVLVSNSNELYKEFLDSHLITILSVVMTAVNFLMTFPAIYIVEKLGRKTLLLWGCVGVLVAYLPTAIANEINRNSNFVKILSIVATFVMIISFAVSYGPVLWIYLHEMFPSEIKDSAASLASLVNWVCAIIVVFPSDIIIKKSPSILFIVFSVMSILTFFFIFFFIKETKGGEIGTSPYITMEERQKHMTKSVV
Source text: (§1) Generation of HEK293 cells overexpressing PfHT and human GLUTs 1–4 were described elsewhere. Briefly, HEK293 cells were transfected with pcDNA3.1 FLII12Pglu-7006 (Addgene), containing the fluorescence resonance energy transfer (FRET) glucose sensor (HEK293-FLIP) and PfHT, human GLUT1 (hGLUT1), hGLUT2, hGLUT3, hGLUT4, hGLUT5 or hGLUT8 using Optifect (Life Technologies) according to manufacturer’s specifications. To increase retention of GLUT8 at the plasma membrane, the dileucine sorting signal E^7E^8XXXLL was modified to R^7R^8XXXLL as described in [17]. Stable transfectants were selected for G418 and hygromycin resistance to select for FRET sensor and hexose transporter, respectively. HEK293-FLIP cells were also used to generate cells stably transfected with FLAG-tagged PfHT (FTPfHT). FLAG tag ([…]) followed by a triple glycine linker and a tobacco etch virus (TEV) protease site (ENLYFQS) followed by a triple glycine linker was added to the N-terminus of PfHT via PCR [18] using Phusion Hot Start II High-Fidelity DNA Polymerase (Fisher Scientific). Single clones were selected by comparing their abilities to transport glucose as assayed via FRET and radiolabeled hexose uptake. In all cell lines, except for HEK293 cells overexpressing hGLUT1 and hGLUT5, native hGLUT1 was knocked down using shRNA as described elsewhere. Transcript levels of the individual GLUTs expressed in each cell line are as described in [13, 15] and in S1 Fig.
(§2) Glucose uptake by P. falciparum was performed essentially as described. P. falciparum strain 3D7 was cultured in 100 mm tissue culture dishes (Techno Plastic Products) in a 2% suspension of human erythrocytes and RPMI 1640 medium until reaching > 7.5% parasitemia. Cells were pelleted via centrifugation and resuspended in RPMI 1640 medium. To determine the uptake of radiolabeled glucose into the parasite, parasites were isolated from infected erythrocytes by permeablization with saponin (0.05 w/v), followed by centrifugation, aspiration of supernatant and washing of the pellet 3X with saline solution (135 mM NaCl, 2 mM KCl, 25 mM HEPES, 0.2 mM glucose and 1 mM MgCl2; pH 7.1) to remove cellular debris. WU-1 or DMSO vehicle were added to 100 μl parasites (resuspended in saline) 5 min prior to the addition of 100 μl [^14C]2-DOG (0.2- μCi/ml final concentration). 2-DG uptake was stopped after 2 min by layering the entire reaction over 300 μl of an oil mixture (5:4 mix of dibutyl phthalate / dinonyl phthalate) in Eppendorf tubes and centrifuged at 15,850 × g for 2 mins. The ratio of the estimated intracellular concentration of radiolabel relative to the extracellular concentration were calculated as described. Uptake of radiolabeled hexose into HEK293 cells was measured in glucose-free HBSS as described previously. Briefly, cells were plated at 400,000 cells/well overnight at 37°C in 24-well plates pre-treated with PEI. After 30-min incubation at 37°C in glucose-free HBSS in the presence of vehicle or increasing concentrations of compound, 2-DG uptake was measured in glucose-free HBSS for 4 min at 37°C. Cultures were washed in ice-cold 1X PBS and lysed in 0.1% Triton X-100 in 1X PBS. Radiolabeled hexose uptake was determined by liquid scintillation counting (Ultima Gold, Thermo Fisher) and normalized to total protein per well. Uptake data are plotted as percent uptake relative to vehicle-treated cells. Kinetic analyses were performed using the indicated concentrations of substrate and WU-1, with quenching of uptake after 1 min incubation. Incubation times had been previously determined as being in the linear range of time-dependent radiolabeled hexose uptake (2 min for 2-DG uptake into freed parasites; 2 and 4 min for D-Frc and 2-DG uptake HEK cell lines, respectively). Data were fit by least squares nonlinear regression analysis using GraphPad Prism 6.0 software.

PfHT [2] = biological target: T2, PfHT (Plasmodium falciparum, UniProt Q7KWJ5); assay: 2-DG uptake by HEK293 cells overexpressing PfHT; assay type: cell-based; parameters: expressed in transfected cells; host or cells: HEK293 (HEK293-FLIP, native hGLUT1 knocked down by shRNA)
T2 sequence (Q7KWJ5 1-504): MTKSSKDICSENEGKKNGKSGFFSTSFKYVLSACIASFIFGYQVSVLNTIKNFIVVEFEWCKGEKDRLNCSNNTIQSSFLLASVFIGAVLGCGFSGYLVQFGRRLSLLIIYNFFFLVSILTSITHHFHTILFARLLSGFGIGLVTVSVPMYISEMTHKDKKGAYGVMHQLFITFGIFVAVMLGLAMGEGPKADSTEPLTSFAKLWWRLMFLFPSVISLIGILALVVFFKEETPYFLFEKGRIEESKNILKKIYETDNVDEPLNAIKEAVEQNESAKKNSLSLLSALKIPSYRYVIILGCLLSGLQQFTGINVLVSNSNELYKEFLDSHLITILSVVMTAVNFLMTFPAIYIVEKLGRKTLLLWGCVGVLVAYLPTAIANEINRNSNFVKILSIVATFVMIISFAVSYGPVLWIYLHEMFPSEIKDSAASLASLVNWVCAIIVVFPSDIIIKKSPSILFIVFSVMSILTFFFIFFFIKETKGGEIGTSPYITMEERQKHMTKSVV
Source text: as §1, §2

GLUT1 Y293I = system: GLUT1 Y293I; parameters: method as in PMID 8157690; conditions: GLUT1 Y293I vs wild type; cited from earlier work
FTPfHT [3] = biological target: T1, FTPfHT; assay: Kinetic analysis of 2-DG uptake (Km) in HEK293 cells overexpressing FTPfHT; assay type: cell-based; parameters: the 38–40 kDa band represents full length PfHT; expressed in transfected cells; host or cells: HEK293-FLIP (HEK293); conditions: average of Expt 1-3
Procedure: (§3) Glucose uptake by P. falciparum was performed essentially as described [23]. P. falciparum strain 3D7 was cultured in 100 mm tissue culture dishes (Techno Plastic Products) in a 2% suspension of human erythrocytes and RPMI 1640 medium until reaching > 7.5% parasitemia. Cells were pelleted via centrifugation and resuspended in RPMI 1640 medium. To determine the uptake of radiolabeled glucose into the parasite, parasites were isolated from infected erythrocytes by permeablization with saponin (0.05 w/v), followed by centrifugation, aspiration of supernatant and washing of the pellet 3X with saline solution (135 mM NaCl, 2 mM KCl, 25 mM HEPES, 0.2 mM glucose and 1 mM MgCl2; pH 7.1) to remove cellular debris. […] The ratio of the estimated intracellular concentration of radiolabel relative to the extracellular concentration were calculated as described [23]. Uptake of radiolabeled hexose into HEK293 cells was measured in glucose-free HBSS as described previously [24]. […] After 30-min incubation at 37°C in glucose-free HBSS in the presence of vehicle or increasing concentrations of compound, 2-DG uptake was measured in glucose-free HBSS for 4 min at 37°C. […] Radiolabeled hexose uptake was determined by liquid scintillation counting (Ultima Gold, Thermo Fisher) and normalized to total protein per well. […]

PfHT [4] = biological target: T2, PfHT; assay: Kinetic analysis of 2-DG uptake (Km) in HEK293 cells overexpressing PfHT
Procedure: (§4) Glucose uptake by P. falciparum was performed essentially as described [23]. P. falciparum strain 3D7 was cultured in 100 mm tissue culture dishes (Techno Plastic Products) in a 2% suspension of human erythrocytes and RPMI 1640 medium until reaching > 7.5% parasitemia. Cells were pelleted via centrifugation and resuspended in RPMI 1640 medium. To determine the uptake of radiolabeled glucose into the parasite, parasites were isolated from infected erythrocytes by permeablization with saponin (0.05 w/v), followed by centrifugation, aspiration of supernatant and washing of the pellet 3X with saline solution (135 mM NaCl, 2 mM KCl, 25 mM HEPES, 0.2 mM glucose and 1 mM MgCl2; pH 7.1) to remove cellular debris. WU-1 or DMSO vehicle were added to 100 μl parasites (resuspended in saline) 5 min prior to the addition of 100 μl [^14C]2-DOG (0.2- μCi/ml final concentration). 2-DG uptake was stopped after 2 min by layering the entire reaction over 300 μl of an oil mixture (5:4 mix of dibutyl phthalate / dinonyl phthalate) in Eppendorf tubes and centrifuged at 15,850 × g for 2 mins. The ratio of the estimated intracellular concentration of radiolabel relative to the extracellular concentration were calculated as described [23]. Uptake of radiolabeled hexose into HEK293 cells was measured in glucose-free HBSS as described previously [24]. Briefly, cells were plated at 400,000 cells/well overnight at 37°C in 24-well plates pre-treated with PEI. After 30-min incubation at 37°C in glucose-free HBSS in the presence of vehicle or increasing concentrations of compound, 2-DG uptake was measured in glucose-free HBSS for 4 min at 37°C. Cultures were washed in ice-cold 1X PBS and lysed in 0.1% Triton X-100 in 1X PBS. Radiolabeled hexose uptake was determined by liquid scintillation counting (Ultima Gold, Thermo Fisher) and normalized to total protein per well. Uptake data are plotted as percent uptake relative to vehicle-treated cells. Kinetic analyses were performed using the indicated concentrations of substrate and WU-1, with quenching of uptake after 1 min incubation. […] Data were fit by least squares nonlinear regression analysis using GraphPad Prism 6.0 software.

[5] = substrate: O=CC[C@@H](O)[C@H](O)[C@H](O)CO; assay: cells, lysate or membranes; assay type: cell-based, Plasmodium falciparum; conditions: other: 2-DG uptake (1 min), FTPfHT; pH 7.1; 37.0 °C
Procedure: as §3

[6] = substrate: O=CC[C@@H](O)[C@H](O)[C@H](O)CO; assay: cells, lysate or membranes; conditions: other: 2-DG uptake (1 min), PfHT; pH 7.1; 37.0 °C
Procedure: as §4

## Cc1cccc(C)c1OCC(=O)N[C@@H](Cc1ccccc1)[C@@H](O)C[C@H](Cc1ccccc1)NC(=O)[C@H](C(C)C)N1CCCNC1=O [lopinavir]
Blood stage parasites
  IC50: 16 µM

## CC1OC[C@H]2O[C@H](O)[C@H](O)[C@@H](O)[C@@H]2O1 (stereo partly drawn) [Ethylideneglucose, 4,6-O-ethylidene-α-D-glucose, reference compound]
FTPfHT [1]; FTPfHT, 2-DG Uptake, single experiments Expt 1-3, read-out: IC50
  IC50: 1490 µM and 1830 µM and 1170 µM
FTPfHT [1]; FTPfHT, concentration 0.001 mM, Expt 1-3
  2-DG Uptake AVE: 100.00
FTPfHT [1]; FTPfHT, concentration 0.0390625 mM
  2-DG Uptake AVE: 96.35
FTPfHT [1]; FTPfHT, concentration 0.078125 mM
  2-DG Uptake AVE: 89.02 and 99.10 and 95.29
FTPfHT [1]; FTPfHT, concentration 0.15625 mM
  2-DG Uptake AVE: 83.11 and 96.24 and 85.58
FTPfHT [1]; FTPfHT, concentration 0.3125 mM
  2-DG Uptake AVE: 83.21 and 82.95 and 84.08
FTPfHT [1]; FTPfHT, concentration 0.63 mM
  2-DG Uptake AVE: 73.60 and 68.20 and 76.54
FTPfHT [1]; FTPfHT, concentration 1.25 mM
  2-DG Uptake AVE: 62.34 and 52.24 and 56.96
FTPfHT [1]; FTPfHT, concentration 2.5 mM
  2-DG Uptake AVE: 40.70 and 31.77 and 32.91
FTPfHT [1]; FTPfHT, concentration 5 mM
  2-DG Uptake AVE: 18.95 and 15.78 and 18.06
FTPfHT [1]; FTPfHT, concentration 10 mM
  2-DG Uptake AVE: 13.87 and 9.18 and 10.65
FTPfHT [1]; FTPfHT, concentration 20 mM
  2-DG Uptake AVE: 7.63 and 6.14 and 7.00
FTPfHT [1]; FTPfHT, concentration 40 mM
  2-DG Uptake AVE: 5.44 and 4.46 and 5.15
FTPfHT [1]; FTPfHT, concentration 80 mM
  2-DG Uptake AVE: 5.14 and 3.60
FTPfHT [1]; read-out: IC50 for inhibition of 2-DG uptake, HEK293 cells overexpressing FTPfHT
  IC50: 1500 ± 200 µM
PfHT [2]; PfHT, 2-DG Uptake, average of Expt 1-3, read-out: AVE IC50
  IC50: 5790 µM
PfHT [2]; PfHT, 2-DG Uptake, single experiments Expt 1-3, read-out: IC50
  IC50: 5990 µM
PfHT [2]; PfHT, concentration 0.001 mM, Expt 1-3
  2-DG Uptake AVE: 100.00
PfHT [2]; PfHT, concentration 0.3125 mM
  2-DG Uptake AVE: 94.37 and 96.75 and 86.10
PfHT [2]; PfHT, concentration 0.625 mM
  2-DG Uptake AVE: 89.78 and 84.91 and 77.97
PfHT [2]; PfHT, concentration 1.25 mM
  2-DG Uptake AVE: 82.38 and 77.88 and 79.22
PfHT [2]; PfHT, concentration 2.5 mM
  2-DG Uptake AVE: 70.45 and 76.21 and 65.14
PfHT [2]; PfHT, concentration 5 mM
  2-DG Uptake AVE: 56.80 and 57.04 and 54.41
PfHT [2]; PfHT, concentration 10 mM
  2-DG Uptake AVE: 38.62 and 35.32 and 38.49
PfHT [2]; PfHT, concentration 20 mM
  2-DG Uptake AVE: 25.77 and 23.49 and 21.21
PfHT [2]; PfHT, concentration 40 mM
  2-DG Uptake AVE: 17.24 and 14.68 and 18.76
PfHT [2]; PfHT, concentration 80 mM
  2-DG Uptake AVE: 11.01 and 10.15 and 11.14
PfHT [2]; PfHT, concentration 160 mM
  2-DG Uptake AVE: 6.85 and 7.66 and 8.85
PfHT [2]; PfHT, concentration 320 mM
  2-DG Uptake AVE: 4.36 and 4.29 and 5.25
PfHT [2]; read-out: IC50 for inhibition of 2-DG uptake, HEK293 cells overexpressing PfHT
  IC50: 5900 ± 150 µM
GLUT1 Y293I
  decrease of Ki by Y293I mutation: > 2 fold

## O=C(CO)[C@@H](O)[C@H](O)[C@H](O)CO [D-frc]
FTPfHT [3]
  Km (1/v) D-frc uptake: AVE IC50: 2070 µM
PfHT [4]; average of Expt 1-3
  Km (1/v) D-frc uptake: AVE IC50: 1830 µM
PfHT [4]; single experiments Expt 1-3
  Km (1/v) D-frc uptake: IC50: 2500 µM and 1600 µM and 1380 µM

B1: FTPfHT (Plasmodium falciparum 3D7) (protein)
chain: MTKSSKDICSENEGKKNGKSGFFSTSFKYVLSACIASFIFGYQVSVLNTIKNFIVVEFEWCKGEKDRLNCSNNTIQSSFLLASVFIGAVLGCGFSGYLVQFGRRLSLLIIYNFFFLVSILTSITHHFHTILFARLLSGFGIGLVTVSVPMYISEMTHKDKKGAYGVMHQLFITFGIFVAVMLGLAMGEGPKADSTEPLTSFAKLWWRLMFLFPSVISLIGILALVVFFKEETPYFLFEKGRIEESKNILKKIYETDNVDEPLNAIKEAVEQNESAKKNSLSLLSALKIPSYRYVIILGCLLSGLQQFTGINVLVSNSNELYKEFLDSHLITILSVVMTAVNFLMTFPAIYIVEKLGRKTLLLWGCVGVLVAYLPTAIANEINRNSNFVKILSIVATFVMIISFAVSYGPVLWIYLHEMFPSEIKDSAASLASLVNWVCAIIVVFPSDIIIKKSPSILFIVFSVMSILTFFFIFFFIKETKGGEIGTSPYITMEERQKHMTKSVV
notes: the 38–40 kDa band represents full length PfHT; expressed in transfected cells; host or cells: HEK293-FLIP (HEK293)
[5]
  Km: 2100 ± 500 µM

B2: PfHT (Plasmodium falciparum 3D7) (protein)
chain: MTKSSKDICSENEGKKNGKSGFFSTSFKYVLSACIASFIFGYQVSVLNTIKNFIVVEFEWCKGEKDRLNCSNNTIQSSFLLASVFIGAVLGCGFSGYLVQFGRRLSLLIIYNFFFLVSILTSITHHFHTILFARLLSGFGIGLVTVSVPMYISEMTHKDKKGAYGVMHQLFITFGIFVAVMLGLAMGEGPKADSTEPLTSFAKLWWRLMFLFPSVISLIGILALVVFFKEETPYFLFEKGRIEESKNILKKIYETDNVDEPLNAIKEAVEQNESAKKNSLSLLSALKIPSYRYVIILGCLLSGLQQFTGINVLVSNSNELYKEFLDSHLITILSVVMTAVNFLMTFPAIYIVEKLGRKTLLLWGCVGVLVAYLPTAIANEINRNSNFVKILSIVATFVMIISFAVSYGPVLWIYLHEMFPSEIKDSAASLASLVNWVCAIIVVFPSDIIIKKSPSILFIVFSVMSILTFFFIFFFIKETKGGEIGTSPYITMEERQKHMTKSVV
[6]
  Km: 1800 ± 300 µM
